Data as given in PubChem BioAssay (NCI).
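Test compounds were applied to cells in 96-well plates for 48 hours at 5 doses. GI50 is the concentration that inhibits growth by half. TGI: concentration producing complete growth inhibition.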

Key:
Assay in all cases: DTP human tumour cell line panel, 48 h
SK-OV-3 ovarian = tested on: SK-OV-3 ovarian
SK-MEL-28 melanoma = tested on: SK-MEL-28 melanoma
SN12C renal = tested on: SN12C renal
OVCAR-5 ovarian = tested on: OVCAR-5 ovarian
NCI-H23 lung = tested on: NCI-H23 lung
786-0 renal = tested on: 786-0 renal
HCT-15 colon = tested on: HCT-15 colon
SR leukemia = tested on: SR leukemia

| SMILES | TGI (SK-OV-3 ovarian) | TGI (SK-MEL-28 melanoma) | TGI (SN12C renal) | TGI (OVCAR-5 ovarian) | TGI (NCI-H23 lung) | TGI (786-0 renal) | TGI (HCT-15 colon) | GI50 (SR leukemia) | TGI (SR leukemia) | GI50 (SK-OV-3 ovarian) | GI50 (SK-MEL-28 melanoma) | GI50 (SN12C renal) | GI50 (OVCAR-5 ovarian) | GI50 (NCI-H23 lung) | GI50 (786-0 renal) | GI50 (HCT-15 colon) |
| --- | --- | --- | --- | --- | --- | --- | --- | --- | --- | --- | --- | --- | --- | --- | --- | --- |
| NC(=O)C(=O)Cc1nc2ccccc2s1 | > 100 µM | > 100 µM | > 100 µM | > 100 µM | > 100 µM | > 100 µM | > 100 µM | – | – | – | – | – | – | – | – | – |
| Nc1c(-c2nc3ccccc3s2)[n+]([O-])c2ccccc2[n+]1[O-] | 88.9 µM | 61.5 µM | – | > 100 µM | 51.4 µM | > 100 µM | – | – | – | – | – | – | – | – | – | – |
| CC1(C)CC(O)CC(C)(C)N1.CC1(C)CC(O)CC(C)(C)N1.CC1(C)CC(O)CC(C)(C)N1.CC1(C)CC(O)CC(C)(C)N1.Cl.[Ti] | > 100 µM | > 100 µM | > 100 µM | > 100 µM | > 100 µM | > 100 µM | > 100 µM | > 100 µM | > 100 µM | > 100 µM | > 100 µM | > 100 µM | > 100 µM | > 100 µM | > 100 µM | > 100 µM |
| O=C(O)C1=C(C(=O)O)Oc2ccccc2O1 | > 100 µM | > 100 µM | > 100 µM | > 100 µM | > 100 µM | > 100 µM | > 100 µM | – | > 100 µM | – | – | – | – | – | – | – |
| CCOC(=O)COc1cccc2occc(=O)c12 | > 100 µM | > 100 µM | > 100 µM | > 100 µM | > 100 µM | > 100 µM | > 100 µM | – | – | – | – | – | – | – | – | – |
| CC(C)(C)c1cc(C(OCCl)(C(F)(F)F)C(F)(F)F)c2c(c1)C(C(F)(F)F)(C(F)(F)F)OC21c2ccccc2C(=O)c2ccccc21 | – | > 100 µM | > 100 µM | > 100 µM | > 100 µM | > 100 µM | > 100 µM | – | > 100 µM | – | – | – | – | – | – | – |
| Nc1ncnc2sc(Nc3ccccc3)nc12 | > 100 µM | > 100 µM | > 100 µM | > 100 µM | > 100 µM | > 100 µM | > 100 µM | – | > 100 µM | – | – | – | – | – | – | – |
| O=C1c2ccoc2C(=O)c2oc(=O)ccc21 | > 57.9 µM | 11.5 µM | 24.2 µM | 33.9 µM | 4.01 µM | 30.8 µM | 24.9 µM | – | 3.83 µM | – | – | – | – | – | – | – |
| NNC(=O)N/N=C1\CNC(=O)C(=O)C1c1nc2ccccc2s1 (centres undefined) | > 100 µM | > 100 µM | > 100 µM | > 100 µM | > 100 µM | > 100 µM | > 100 µM | – | – | – | – | – | – | – | – | – |
| O=S(=O)(Cc1ccccc1)SCc1ccccc1 | 97.3 µM | 97.2 µM | 58 µM | > 100 µM | 52.7 µM | 51.5 µM | 40.2 µM | – | > 66.4 µM | – | – | – | – | – | – | – |
| O=C(CCC(=O)C1Cc2ccccc2C1=O)Nc1cccc(C(F)(F)F)c1 (centres undefined) | > 100 µM | – | > 100 µM | > 100 µM | > 100 µM | > 100 µM | > 100 µM | – | – | – | – | – | – | – | – | – |
| O=c1c2cccc3cccc(c4n1CCCN=4)c32 | > 100 µM | > 100 µM | > 100 µM | > 100 µM | > 100 µM | > 100 µM | > 100 µM | – | > 100 µM | – | – | – | – | – | – | – |
| Nc1nc(-c2ccccc2)cc(-c2cc(Cl)ccc2O)n1 | 77.8 µM | > 100 µM | > 100 µM | > 100 µM | > 100 µM | > 100 µM | > 100 µM | – | > 100 µM | – | – | – | – | – | – | – |
| COc1ccc2c3c(c(C(=O)O)oc13)C(CCC(=O)O)CC2 (centres undefined) | > 100 µM | > 100 µM | > 100 µM | – | > 100 µM | > 100 µM | > 100 µM | – | – | – | – | – | – | – | – | – |
| C1=C(c2ccccc2)C(OC2Oc3ccccc3C=C2c2ccccc2)Oc2ccccc21 (centres undefined) | > 100 µM | > 100 µM | > 100 µM | > 100 µM | > 100 µM | > 100 µM | > 100 µM | – | > 100 µM | – | – | – | – | – | – | – |
| COc1ccc2nc(-c3ccc(O)cc3)ccc2c1 | > 100 µM | > 100 µM | > 100 µM | > 100 µM | > 100 µM | > 100 µM | – | – | > 100 µM | – | – | – | – | – | – | – |
| C/C(CC(=O)Nc1cccc(Cl)c1C)=N\N=C(N)N | > 100 µM | > 100 µM | > 100 µM | > 100 µM | > 100 µM | > 100 µM | > 100 µM | – | – | – | – | – | – | – | – | – |
| C1CCN2CC3CONC3C2C1 (centres undefined) | – | > 100 µM | > 100 µM | > 100 µM | > 100 µM | > 100 µM | > 100 µM | – | – | – | – | – | – | – | – | – |
| Cc1csc(CCC(N)C(=O)O)n1 (centres undefined) | > 100 µM | > 100 µM | > 100 µM | – | > 100 µM | > 100 µM | > 100 µM | – | – | – | – | – | – | – | – | – |
| CC(=O)c1c(O)c2c([nH]c1=O)CCCC2 | 48.5 µM | > 100 µM | 45.1 µM | – | > 100 µM | > 100 µM | > 100 µM | – | – | – | – | – | – | – | – | – |
